# Source: PMC8881610 (Nature Communications, 2022)
# How the values were obtained:
# [1] = clinical trial outcome; Drugs@FDA, ChemBL, ClinicalTrials.gov; cited from earlier work
# GLP-1R = GLP-1R (Homo sapiens, UniProt P43220); assay: cAMP accumulation assay, GLP-1R WT, mutant or modified constructs; assay type: cell-based; design: Flag; expressed in transfected cells; host or cells: HEK293T; details: GLP-1R; HEK293T, n = 4; SEM
# Procedure: (§1) Human embryonic kidney 293 cells containing SV40 large T-antigen (HEK293T) were cultured in DMEM (Gibco) supplemented with 10% (v/v) fetal bovine serum (FBS, Gibco), 1 mM sodium pyruvate (Gibco) and 100 units/mL penicillin and 100 μg/mL streptomycin at 37 °C in 5% CO2. Chinese hamster ovary (CHO-K1) cells were cultured in F-12 (Gibco) containing 10% FBS, 100 units/mL penicillin and 100 μg/mL streptomycin at 37 °C in 5% CO2. For cAMP and receptor expression assays, HEK293T cells were seeded into 6-well cell culture plates at a density of 7 × 10^5 cells per well. After overnight incubation, cells were transfected with GIPR, GLP-1R or GCGR construct using Lipofectamine 2000 or Lipofectamine 3000 transfection reagent (Invitrogen). For whole-cell binding assay, CHO-K1 cells were seeded into 96-well fibronectin-treated cell culture plates at a density of 3 × 10^4 cells per well. After overnight incubation, cells were transfected with GIPR, GLP-1R or GCGR construct using Lipofectamine 2000 transfection reagent (Invitrogen). Following 24 h culturing, the transfected cells were ready for use.
# The human GLP-1R was modified with its native signal sequence (M1-P23) replaced by the HA signal peptide to facilitate receptor expression. To obtain a GLP-1R–Gs complex with good homogeneity and stability, we used the NanoBiT tethering strategy, in which the C terminus of GLP-1R was directly attached to LgBiT subunit followed by a TEV protease cleavage site and a double MBP tag. […] The constructs were cloned into both pcDNA3.1 and pFastBac vectors for functional assays in mammalian cells and protein expression in insect cells, respectively. Other constructs including the full-length and various mutants of human GLP-1R were cloned into pcDNA3.1 vector for cAMP accumulation and whole-cell binding assays.
# For GIPR, GLP-1R and GCGR, multi-targeting agonist stimulated cAMP accumulation was measured by a LANCE Ultra cAMP kit (PerkinElmer). After 24 h culture, the transfected cells were seeded into 384-well microtiter plates at a density of 3,000 cells per well in HBSS supplemented with 5 mM HEPES, 0.1% (w/v) BSA or 0.1% (w/v) casein and 0.5 mM 3-isobutyl-1-methylxanthine. The cells were stimulated with different concentrations of peptide agonists for 40 min at RT. Eu-cAMP tracer and ULight^TM-anti-cAMP were then diluted by cAMP detection buffer and added to the plates separately to terminate the reaction. Plates were incubated at RT for 1 h and the fluorescence intensity measured at 620 nm and […] by an EnVision multilabel plate reader (PerkinElmer).
# GCGR = GCGR (Homo sapiens, UniProt P47871); assay: Whole-cell binding assay, competition with 125I-GCG; design: V5 (C); 6×His (C); expressed in transfected cells; host or cells: CHO-K1; details: Fig. 7c receptor binding profile, n = 3 in duplicate
# GCGR, sequence (P47871 26-477): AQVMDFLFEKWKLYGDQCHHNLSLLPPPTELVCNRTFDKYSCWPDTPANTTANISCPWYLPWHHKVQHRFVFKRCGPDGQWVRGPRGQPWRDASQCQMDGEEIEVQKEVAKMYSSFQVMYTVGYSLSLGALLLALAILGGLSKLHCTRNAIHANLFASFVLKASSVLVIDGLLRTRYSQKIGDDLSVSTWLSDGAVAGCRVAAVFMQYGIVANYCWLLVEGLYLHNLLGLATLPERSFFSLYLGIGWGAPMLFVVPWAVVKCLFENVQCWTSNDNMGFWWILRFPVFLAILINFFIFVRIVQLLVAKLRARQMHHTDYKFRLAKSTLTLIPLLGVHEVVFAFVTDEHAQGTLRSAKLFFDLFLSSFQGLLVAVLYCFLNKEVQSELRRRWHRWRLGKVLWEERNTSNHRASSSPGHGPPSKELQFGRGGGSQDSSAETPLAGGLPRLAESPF
# Procedure: as §1
# For GLP-1R and GCGR, CHO-K1 cells (30,000 cells/well) were seeded into Isoplate-96 plates and incubated for 24 h at 37 °C in 5% CO2. The WT or mutant constructs were transiently transfected using Lipofectamine 2000 transfection reagent as previous described. They were then washed twice using F-12 with 0.1% BSA or 0.1% casein, 33 mM HEPES, and incubated for 2 h at 37 °C. […] Cells were washed three times with ice-cold PBS and lysed in PBS with 1% Triton X-100, 20 mM Tris-HCl. After addition of scintillation cocktail (PerkinElmer), radioactivity (CPM) was counted on a MicroBeta^2 microplate counter (PerkinElmer). Data were normalized to the WT response and analyzed using three-parameter logistic equation.
# GIPR = biological target: T1, GIPR (Homo sapiens, UniProt P48546); assay: Whole-cell binding assay, competition with 125I-GIP1-42; design: acylated tirzepatide to the full-length or modified; Flag; expressed in transfected cells; details: Fig. 7c receptor binding profile, n = 3 in duplicate
# T1 sequence (P48546 22-466): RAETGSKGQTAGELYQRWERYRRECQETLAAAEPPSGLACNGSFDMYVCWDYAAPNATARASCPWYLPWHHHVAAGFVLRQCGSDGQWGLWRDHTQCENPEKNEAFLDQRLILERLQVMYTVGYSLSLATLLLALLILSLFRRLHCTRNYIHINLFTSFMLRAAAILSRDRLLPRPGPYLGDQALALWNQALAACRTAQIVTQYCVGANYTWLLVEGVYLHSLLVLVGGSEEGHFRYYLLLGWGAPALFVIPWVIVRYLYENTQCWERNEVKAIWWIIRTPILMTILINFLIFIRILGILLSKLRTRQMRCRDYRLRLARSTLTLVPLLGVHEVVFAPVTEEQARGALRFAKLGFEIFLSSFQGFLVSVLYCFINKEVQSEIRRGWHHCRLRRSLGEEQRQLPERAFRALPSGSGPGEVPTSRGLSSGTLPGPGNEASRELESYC
# Procedure: as §1
# For GIPR, CHO-K1 cells were cultured in F-12 medium with 10% FBS and seeded at a density of 30,000 cells/well in Isoplate-96 plates (PerkinElmer). The WT or mutant GIPR was transiently transfected using Lipofectamine 2000 transfection reagent as previous described. They were then washed twice using F-12 with 0.1% BSA or 0.1% casein, 33 mM HEPES, and incubated for 2 h at 37 °C. […] Following incubation, cells were washed three times with ice-cold PBS and lysed by addition of 50 μL lysis buffer (PBS supplemented with 20 mM Tris-HCl, 1% Triton X-100, pH 7.4). Fifty µL of scintillation cocktail (OptiPhase SuperMix, PerkinElmer) were added and the plates were subsequently counted for radioactivity (counts per minute, CPM) in a MicroBeta^2 microplate counter (PerkinElmer).
# GLP-1R, sequence (P43220 24-463): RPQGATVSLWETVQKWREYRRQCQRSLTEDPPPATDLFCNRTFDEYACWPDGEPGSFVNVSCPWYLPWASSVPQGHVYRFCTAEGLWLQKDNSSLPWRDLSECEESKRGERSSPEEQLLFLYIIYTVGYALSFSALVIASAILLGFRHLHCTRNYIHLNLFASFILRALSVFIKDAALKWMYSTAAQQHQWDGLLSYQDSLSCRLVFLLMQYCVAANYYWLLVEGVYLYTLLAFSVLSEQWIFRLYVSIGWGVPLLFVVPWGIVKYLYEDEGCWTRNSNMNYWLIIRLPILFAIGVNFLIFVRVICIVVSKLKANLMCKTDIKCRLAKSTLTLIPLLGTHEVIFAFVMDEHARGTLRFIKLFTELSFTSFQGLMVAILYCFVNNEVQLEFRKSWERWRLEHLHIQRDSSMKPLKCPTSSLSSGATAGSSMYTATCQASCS
Compound,Body weight [1],Fasting plasma glucose [1],HAb1c [1],cAMP Emax ± S.E.M. (GLP-1R),cAMP pEC50 ± S.E.M. (GLP-1R),GCGR (pIC50 ± S.E.M.) (GCGR),GIPR (pIC50 ± S.E.M.) (GIPR)
"Albiglutide: approved GLP-1 analog, GLP-1R mono-agonist",-0.04 kg or %,-30.00 mg/dL,-1.3%,100.13 ± 1.66 % max GLP-1(7-36)NH2,11.02 ± 0.05,N.B.,N.B.
Dulaglutide: approved GLP-1R mono-agonist,-0.20 kg or %,-34.20 mg/dL,-1.45%,,,,
"CC[C@H](C)[C@H](NC(=O)[C@H](CO)NC(=O)[C@H](Cc1ccc(O)cc1)NC(=O)[C@H](CC(=O)O)NC(=O)[C@H](CO)NC(=O)[C@@H](NC(=O)[C@H](Cc1ccccc1)NC(=O)[C@@H](NC(=O)CNC(=O)[C@H](CCC(=O)O)NC(=O)[C@H](C)NC(=O)[C@@H](N)Cc1ccc(O)cc1)[C@@H](C)O)[C@@H](C)CC)C(=O)N[C@@H](C)C(=O)N[C@@H](CCSC)C(=O)N[C@@H](CC(=O)O)C(=O)N[C@@H](CCCCN)C(=O)N[C@H](C(=O)N[C@@H](Cc1c[nH]cn1)C(=O)N[C@@H](CCC(N)=O)C(=O)N[C@@H](CCC(N)=O)C(=O)N[C@@H](CC(=O)O)C(=O)N[C@@H](Cc1ccccc1)C(=O)N[C@H](C(=O)N[C@@H](CC(N)=O)C(=O)N[C@@H](Cc1c[nH]c2ccccc12)C(=O)N[C@@H](CC(C)C)C(=O)N[C@@H](CC(C)C)C(=O)N[C@@H](C)C(=O)N[C@@H](CCC(N)=O)C(=O)N[C@@H](CCCCN)C(=O)NCC(=O)N[C@@H](CCCCN)C(=O)N[C@@H](CCCCN)C(=O)N[C@@H](CC(N)=O)C(=O)N[C@@H](CC(=O)O)C(=O)N[C@@H](Cc1c[nH]c2ccccc12)C(=O)N[C@@H](CCCCN)C(=O)N[C@@H](Cc1c[nH]cn1)C(=O)N[C@@H](CC(N)=O)C(=O)N[C@H](C(=O)N[C@H](C(=O)N[C@@H](CCC(N)=O)C(=O)O)[C@@H](C)O)[C@@H](C)CC)C(C)C)[C@@H](C)CC [GIP1-42, glucose-dependent insulinotropic polypeptide]",,,,,,N.B.,
Exenatide: approved GLP-1R mono-agonist,-0.65 kg or %,-34.20 mg/dL,-1.21%,,,,
CCCCCCCCCCCCCCCC(=O)N[C@@H](CCC(=O)NCCCC[C@H](NC(=O)[C@H](C)NC(=O)[C@H](C)NC(=O)[C@H](CCC(N)=O)NC(=O)CNC(=O)[C@H](CCC(=O)O)NC(=O)[C@H](CC(C)C)NC(=O)[C@H](Cc1ccc(O)cc1)NC(=O)[C@H](CO)NC(=O)[C@H](CO)NC(=O)[C@@H](NC(=O)[C@H](CC(=O)O)NC(=O)[C@H](CO)NC(=O)[C@@H](NC(=O)[C@H](Cc1ccccc1)NC(=O)[C@@H](NC(=O)CNC(=O)[C@H](CCC(=O)O)NC(=O)[C@H](C)NC(=O)[C@@H](N)Cc1c[nH]cn1)[C@@H](C)O)[C@@H](C)O)C(C)C)C(=O)N[C@@H](CCC(=O)O)C(=O)N[C@@H](Cc1ccccc1)C(=O)N[C@H](C(=O)N[C@@H](C)C(=O)N[C@@H](Cc1c[nH]c2ccccc12)C(=O)N[C@@H](CC(C)C)C(=O)N[C@H](C(=O)N[C@@H](CCCNC(=N)N)C(=O)NCC(=O)N[C@@H](CCCNC(=N)N)C(=O)NCC(=O)O)C(C)C)[C@@H](C)CC)C(=O)O [Liraglutide],,,,,,N.B.,N.B.
